Laboratory results taken from ChEMBL document CHEMBL3763135, “Synthesis and evaluation of thiophene-based guanylhydrazones (iminoguanidines) efficient against panel of voriconazole-resistant fungal isolates” (Bioorg Med Chem, 2016).
Calls of active or inactive are those of the source. No cut-off for these calls is given here.

Tests used:
Candida albicans [1] = assay: Antibiofilm activity against Candida albicans ATCC 10231 assessed as inhibition of hyphae formation at MIC after 24 hrs by concanavalin A-FITC-staining based fluorescence microscopic analysis; type: functional, organism-based
Danio rerio [2] = species on record: Danio rerio; assay: Toxicity against zebrafish embryo assessed as effect on blood circulation at 10 ug/ml measured at 96 hrs post fertilization by inverted microscopic analysis; type: organism-based; settings: in vivo
Pichia kudriavzevii [3] = assay: Antibiofilm activity against 48 hrs pre-formed Candida krusei ATCC 34135 assessed as inhibition of hyphae formation at MIC after 24 hrs by concanavalin A-FITC-staining based fluorescence microscopic analysis; type: functional, organism-based
Danio rerio [4] = species on record: Danio rerio; assay: Toxicity against zebrafish embryo assessed as normal embryos at 10 ug/ml measured at 96 hrs post fertilization by inverted microscopic analysis; type: organism-based; settings: in vivo
Danio rerio [5] = species on record: Danio rerio; assay: Toxicity against zebrafish embryo assessed as effect on tail tip at 25 ug/ml measured at 96 hrs post fertilization by inverted microscopic analysis; type: organism-based; settings: in vivo
Danio rerio [6] = species on record: Danio rerio; assay: Toxicity against zebrafish embryo assessed as effect on otoliths at 25 ug/ml measured at 96 hrs post fertilization by inverted microscopic analysis; type: organism-based; settings: in vivo
Danio rerio [7] = species on record: Danio rerio; assay: Toxicity against zebrafish embryo assessed as effect on notochord at 50 ug/ml measured at 96 hrs post fertilization by inverted microscopic analysis; type: organism-based; settings: in vivo
Danio rerio [8] = species on record: Danio rerio; assay: Toxicity against zebrafish embryo assessed as skeletal deformities at 5 ug/ml measured at 96 hrs post fertilization by inverted microscopic analysis; type: organism-based; settings: in vivo
Danio rerio [9] = species on record: Danio rerio; assay: Toxicity against zebrafish embryo assessed as effect on eyes at 2.5 ug/ml measured at 96 hrs post fertilization by inverted microscopic analysis; type: organism-based; settings: in vivo
Danio rerio [10] = species on record: Danio rerio; assay: Toxicity against zebrafish embryo assessed as head malformation at 5 ug/ml measured at 96 hrs post fertilization by inverted microscopic analysis; type: organism-based; settings: in vivo
Danio rerio [11] = species on record: Danio rerio; assay: Toxicity against zebrafish embryo assessed as effect on eyes at 25 ug/ml measured at 96 hrs post fertilization by inverted microscopic analysis; type: organism-based; settings: in vivo
Danio rerio [12] = species on record: Danio rerio; assay: Toxicity against zebrafish embryo assessed as teratogenic embryos at 25 ug/ml measured at 96 hrs post fertilization by inverted microscopic analysis; type: organism-based; settings: in vivo
Danio rerio [13] = species on record: Danio rerio; assay: Toxicity against zebrafish embryo assessed as skeletal deformities at 25 ug/ml measured at 96 hrs post fertilization by inverted microscopic analysis; type: organism-based; settings: in vivo
Danio rerio [14] = species on record: Danio rerio; assay: Toxicity against zebrafish embryo assessed as skeletal deformities at 2.5 ug/ml measured at 96 hrs post fertilization by inverted microscopic analysis; type: organism-based; settings: in vivo
Danio rerio [15] = species on record: Danio rerio; assay: Toxicity against zebrafish embryo assessed as effect on notochord at 25 ug/ml measured at 96 hrs post fertilization by inverted microscopic analysis; type: organism-based; settings: in vivo
[16] = system: Trichophyton mentagrophytes; assay: Antifungal activity against Trichophyton mentagrophytes DMT4 by broth dilution method; type: functional
Danio rerio [17] = species on record: Danio rerio; assay: Toxicity against zebrafish embryo assessed as effect on eyes at 50 ug/ml measured at 96 hrs post fertilization by inverted microscopic analysis; type: organism-based; settings: in vivo
Candida albicans [18] = assay: Antibiofilm activity against Candida albicans ATCC 10231 assessed as disruption of preformed biofilm after 24 hrs by concanavalin A-FITC-staining based fluorescence microscopic analysis; type: functional
[19] = Toxicity against zebrafish embryo assessed as dead embryos at 2.5 ug/ml measured at 96 hrs post fertilization by inverted microscopic analysis; type: organism-based, Danio rerio; settings: read-out: Activity
Danio rerio [20] = species on record: Danio rerio; assay: Toxicity against zebrafish embryo assessed as growth retardation at 25 ug/ml measured at 96 hrs post fertilization by inverted microscopic analysis; type: organism-based; settings: in vivo
Danio rerio [21] = species on record: Danio rerio; assay: Toxicity against zebrafish embryo assessed as effect on blood circulation at 2.5 ug/ml measured at 96 hrs post fertilization by inverted microscopic analysis; type: organism-based; settings: in vivo
Pichia kudriavzevii [22] = assay: Antibiofilm activity against Candida krusei ATCC 34135 assessed as inhibition of hyphae formation at MIC after 24 hrs by concanavalin A-FITC-staining based fluorescence microscopic analysis; type: functional, organism-based
Danio rerio [23] = species on record: Danio rerio; assay: Toxicity against zebrafish embryo assessed as effect on blood circulation at 25 ug/ml measured at 96 hrs post fertilization by inverted microscopic analysis; type: organism-based; settings: in vivo
Danio rerio [24] = species on record: Danio rerio; assay: Toxicity against zebrafish embryo assessed as head malformation at 25 ug/ml measured at 96 hrs post fertilization by inverted microscopic analysis; type: organism-based; settings: in vivo
Candida parapsilosis = assay: Antibiofilm activity against Candida parapsilosis C27 assessed as inhibition of hyphae formation at MIC after 24 hrs by concanavalin A-FITC-staining based fluorescence microscopic analysis; type: functional, organism-based
Danio rerio [25] = species on record: Danio rerio; assay: Toxicity against zebrafish embryo assessed as head malformation at 10 ug/ml measured at 96 hrs post fertilization by inverted microscopic analysis; type: organism-based; settings: in vivo
Danio rerio [26] = species on record: Danio rerio; assay: Toxicity against zebrafish embryo assessed as effect on heart beat at 25 ug/ml measured at 96 hrs post fertilization by inverted microscopic analysis; type: organism-based; settings: in vivo
Danio rerio [27] = species on record: Danio rerio; assay: Toxicity against zebrafish embryo assessed as effect on blood circulation at 50 ug/ml measured at 96 hrs post fertilization by inverted microscopic analysis; type: organism-based; settings: in vivo
Danio rerio [28] = species on record: Danio rerio; assay: Toxicity against zebrafish embryo assessed as unhatched embryos at 25 ug/ml measured at 96 hrs post fertilization by inverted microscopic analysis; type: organism-based; settings: in vivo
[29] = Induction of membrane damage in PC/PS/E liposome assessed as calcein release at MIC after 30 mins by fluorescence-based liposome leakage assay; type: functional
Danio rerio [30] = species on record: Danio rerio; assay: Toxicity against zebrafish embryo assessed as effect on eyes at 10 ug/ml measured at 96 hrs post fertilization by inverted microscopic analysis; type: organism-based; settings: in vivo
Danio rerio [31] = species on record: Danio rerio; assay: Toxicity against zebrafish embryo assessed as effect on otoliths at 5 ug/ml measured at 96 hrs post fertilization by inverted microscopic analysis; type: organism-based; settings: in vivo
Danio rerio [32] = assay: Toxicity against zebrafish embryo assessed as yolk edema at 25 ug/ml measured at 96 hrs post fertilization by inverted microscopic analysis; type: organism-based; settings: in vivo
Danio rerio [33] = assay: Toxicity against zebrafish embryo assessed as pericardial edema at 25 ug/ml measured at 96 hrs post fertilization by inverted microscopic analysis; type: organism-based; settings: in vivo
Danio rerio [34] = species on record: Danio rerio; assay: Toxicity against zebrafish embryo assessed as growth retardation at 10 ug/ml measured at 96 hrs post fertilization by inverted microscopic analysis; type: organism-based; settings: in vivo
Danio rerio [35] = species on record: Danio rerio; assay: Toxicity against zebrafish embryo assessed as normal embryos at 25 ug/ml measured at 96 hrs post fertilization by inverted microscopic analysis; type: organism-based; settings: in vivo
Danio rerio [36] = species on record: Danio rerio; assay: Toxicity against zebrafish embryo assessed as teratogenic embryos at 2.5 ug/ml measured at 96 hrs post fertilization by inverted microscopic analysis; type: organism-based; settings: in vivo
[37] = Selectivity index, ratio of IC50 for human MRC5 cell to MIC for Candida albicans CA5
Danio rerio [38] = species on record: Danio rerio; assay: Toxicity against zebrafish embryo assessed as effect on heart beat at 5 ug/ml measured at 96 hrs post fertilization by inverted microscopic analysis; type: organism-based; settings: in vivo
Candida albicans [39] = assay: Induction of apoptosis in Candida albicans CA5 assessed as nuclear condensation at MIC measured after 2 hrs by concavaline-FITC/PI/DAPI-staining based fluorescence microscopic analysis relative to DMSO control; type: functional, organism-based
Danio rerio [40] = species on record: Danio rerio; assay: Toxicity against zebrafish embryo assessed as effect on notochord at 10 ug/ml measured at 96 hrs post fertilization by inverted microscopic analysis; type: organism-based; settings: in vivo
[41] = Hemolytic effect in sheep RBC assessed as release of hemoglobin at MIC after 1 hr; type: ADME, cell-based, Ovis aries, Erythrocyte; settings: sheep red blood cells, read-out: Activity
[42] = Hemolytic effect in sheep RBC assessed as release of hemoglobin at cytotoxic IC50 after 1 hr; type: cell-based, Ovis aries, Erythrocyte; settings: sheep red blood cells, read-out: Activity
Candida albicans [43] = assay: Antifungal activity against Candida albicans CA5 assessed as fungal growth at sub-MIC measured over 12 hrs by time-kill dependence-based spectrophotometric analysis relative to DMSO control; type: functional

SMILES: Cl.Cl.N=C(N)N/N=C/c1ccc(-c2ccc(/C=N/NC(=N)N)s2)cc1
- Activity (Candida albicans [1]): Active
- Activity (Danio rerio [2]): 0%
- Activity (Pichia kudriavzevii [3]): inactive
- Activity (Danio rerio [4]): 100%
- Activity (Danio rerio [5]): 0%
- Activity (Danio rerio [6]): 0%
- Activity (Danio rerio [7]): 0%
- Activity (Danio rerio [8]): 0%
- Activity (Danio rerio [9]): 0%
- Activity (Danio rerio [10]): 0%
- Activity (Danio rerio [11]): 0%
- Activity (Danio rerio [12]): 0%
- Activity (Danio rerio [13]): 0%
- Activity (Danio rerio [14]): 0%
- Activity (Danio rerio [15]): 0%
- MIC [16]: 3.9 µg/mL
- Activity (Danio rerio [17]): 0%
- MBEC (Candida albicans [18]): 250 µg/mL
- mortality at 96 h, 2.5 ug/ml [19]: 0%
- Activity (Danio rerio [20]): 0%
- Activity (Danio rerio [21]): 0%
- Activity (Pichia kudriavzevii [22]): Active
- Activity (Danio rerio [23]): 0%
- Activity (Danio rerio [24]): 0%
- Activity (Candida parapsilosis): Active
- Activity (Danio rerio [25]): 0%
- Activity (Danio rerio [26]): 0%
- Activity (Danio rerio [27]): 0%
- Activity (Danio rerio [28]): 0%
- Activity [29]: 7%
- Activity (Danio rerio [30]): 0%
- Activity (Danio rerio [31]): 0%
- Activity (Danio rerio [32]): 0%
- Activity (Danio rerio [33]): 0%
- Activity (Danio rerio [34]): 0%
- Activity (Danio rerio [35]): 96.67%
- Activity (Danio rerio [36]): 0%
- Selectivity Index [37]: 20
- Activity (Danio rerio [38]): 0%
- Activity (Candida albicans [39]): inactive
- Activity (Danio rerio [40]): 0%

SMILES: Cl.N=C(N)N/N=C/c1ccc(-c2ccc(Br)cc2)s1
- Activity (Danio rerio [2]): 0%
- Activity (Danio rerio [4]): 46.67%
- Activity (Danio rerio [5]): 100%
- Activity (Danio rerio [6]): 0%
- Activity (Danio rerio [8]): 0%
- hemolysis at 1 h [41]: ≤ 10%
- Activity (Danio rerio [9]): 0%
- Activity (Danio rerio [10]): 0%
- Activity (Danio rerio [11]): 0%
- Activity (Danio rerio [12]): 26.67%
- Activity (Danio rerio [13]): 0%
- Activity (Danio rerio [14]): 0%
- Activity (Danio rerio [15]): 0%
- hemolysis at 1 h [42]: ≤ 10%
- MIC [16]: 0.97 µg/mL
- Activity (Candida albicans [43]): 50%
- MBEC (Candida albicans [18]): 125 µg/mL
- mortality at 96 h, 2.5 ug/ml [19]: 0%
- Activity (Danio rerio [20]): 0%
- Activity (Danio rerio [21]): 0%
- Activity (Danio rerio [23]): 0%
- Activity (Danio rerio [24]): 0%
- Activity (Danio rerio [25]): 0%
- Activity (Danio rerio [26]): 0%
- Activity (Danio rerio [28]): 0%
- Activity [29]: 7%
- Activity (Danio rerio [30]): 0%
- Activity (Danio rerio [31]): 0%
- Activity (Danio rerio [32]): 0%
- Activity (Danio rerio [33]): 100%
- Activity (Danio rerio [34]): 0%
- Activity (Danio rerio [35]): 0%
- Activity (Danio rerio [36]): 0%
- Activity (Danio rerio [38]): 0%
- Activity (Danio rerio [40]): 0%

SMILES: Cc1ccc(-c2ccc(/C=N/NC(=N)N)s2)cc1.Cl
- Activity (Candida albicans [1]): Active
- Activity (Danio rerio [2]): 0%
- Activity (Pichia kudriavzevii [3]): Active
- Activity (Danio rerio [4]): 0%
- Activity (Danio rerio [8]): 0%
- hemolysis at 1 h [41]: ≤ 10%
- Activity (Danio rerio [9]): 0%
- Activity (Danio rerio [10]): 100%
- Activity (Danio rerio [12]): 0%
- Activity (Danio rerio [14]): 0%
- hemolysis at 1 h [42]: ≤ 10%
- MIC [16]: 1.56 µg/mL
- Activity (Candida albicans [43]): 50%
- MBEC (Candida albicans [18]): 125 µg/mL
- mortality at 96 h, 2.5 ug/ml [19]: 10%
- Activity (Danio rerio [21]): 0%
- Activity (Pichia kudriavzevii [22]): Active
- Activity (Candida parapsilosis): Active
- Activity (Danio rerio [25]): 100%
- Activity [29]: 7%
- Activity (Danio rerio [30]): 100%
- Activity (Danio rerio [31]): 62.5%
- Activity (Danio rerio [34]): 100%
- Activity (Danio rerio [35]): 0%
- Activity (Danio rerio [36]): 6.67%
- Selectivity Index [37]: 5
- Activity (Danio rerio [38]): 0%
- Activity (Candida albicans [39]): inactive
- Activity (Danio rerio [40]): 0%
